Assay results taken from patent US20230338344A1, “AMPK Activators and Methods of Use Thereof” (Bioverativ Therapeutics Inc., priority 2020, published 2023).
Each block holds one compound with its values, some of them ahead of it.

Key:
human CD34+ cells [1] = test: Maturation of CD34+ cells to erythrocytes: enucleation (NucRed) and markers CD71/CD235a by flow cytometry; format: cell-based
Protocol: During human CD34+ cells differentiation, maturation is measured by quantification of enucleation and expression of markers CD71 and CD235a, and assessed by flowcytometry. […] As well, cells were stained for markers CD235a and CD71. The acquisition was performed on BD FACSCanto™ and the analysis was done using FlowJo™ Software.

[2] = system: human CD34+ cells from sickle cell donors; test: Fetal hemoglobin induction in CD34+ cells from patients with sickle cell disease, 14-day differentiation; format: cell-based; conditions: 14 days of differentiation, vs DMSO
Text: To measure the effect of AMPK activators on fetal hemoglobin induction in CD34+ cells from patients with sickle cell disease, circulating CD34+ progenitor cells were isolated from total blood obtained from a sickle cell patients, by performing a positive selection for CD34+ cells with magnetic beads (Miltenyi Biotec). Purified CD34+ cells were differentiated for 14 days. After differentiation, cells were fixed and stained with CD235a, CD71 and fetal hemoglobin antibodies for flowcytometry analysis.

fetal hemoglobin protein = test: Human fetal hemoglobin protein in Townes mice bone marrow by flow cytometry, 15-day study; format: in vivo, mouse; conditions: HbSS Townes mice, 100 mg/kg PO QD 15 days, vs vehicle
Text: These mice express the genes for human HbS (homozygous HbSS), express the physiopathological phenotype of SCD and are called “HbSS-Townes mice”, whereas the control Townes mice express the genes for human HbA without the sickle mutation (homozygous HbAA), are healthy, and are called “HbAA-Townes mice” (Jackson Laboratory). These control HbAA-Townes mice were created by replacing the murine globin genes with human α-globin gene (genotype: Hba hα/hα) and linked human βA− and fetal Aγ-globins (genotype: Hbb hAγβA/hAγβA), whereas HbSS-Townes mice were created by replacing the murine adult α-globin genes with the human α-globin gene (genotype: Hba hα/hα), and the murine adult β-globin genes were replaced with human sickle βS− and fetal Aγ-globin gene fragments linked together (genotype: Hbb hAγβS/hAγβS).

[3] = system: Nrf2-oxidative stress response pathway; test: Transcriptomic and proteomic analysis of human CD34+ cells differentiated 14 days (correlation study, IPA); format: cell-based; conditions: 3 healthy donors
Protocol: At day 14, RNA was extracted with Trizol reagent (Invitrogen). DNase treatment, RNA integrity and quantification, libraries generation and sequencing (Illumina HiSeq platforms HiSeq 2500) were realized according to Genewiz protocol (South Plainfield, NJ). Concerning the proteomic analysis, proteins were extracted from the same CD34+ cells used for the transcriptomic analysis. Samples preparation, proteins digestion, peptides TMT labeling and proteomic analysis were performed according to IQ Proteomics (Cambridge, MA). Bioinformatics analysis have been conducted to determine the differential expression of mRNA and proteins, and a correlation study using the differential expression from the transcriptomic analysis and the differential expression from the proteomics analysis has been run. […] SQSTM1 is known to activate Nrf2 by inhibiting Keapl, and Nrf2 pathway is known to induce HO-1 for antioxidative function in cells.

[4] = system: Reactive Oxidative Species (ROS); test: Reactive Oxidative Species (ROS) in bone marrow from Townes SCD mice by flow cytometry; format: in vivo, mouse; conditions: 100 mg/kg PO QD 15 days, vs HbSS mice treated with vehicle
[5] = system: HBG (human gamma-globin) mRNA; test: gamma-globin (HBG) mRNA in Townes mouse bone marrow by qRT-PCR; format: in vivo; conditions: HbAA mice bone marrow, 2 days of exposure, 100 mg/kg
Protocol: Total RNA from Townes mouse bone marrow cells was prepared using a RNeasy Mini kit (Qiagen). A quantity of 1 μg of mRNA was reverse transcribed using an iVILO Retro Transcription kit (ThermoFisher). 50 ng of the resulting cDNA was amplified by Taqman amplification in a QuantStudio thermocycler (Life Technologies) using HBG (human 7-globin primers) as gene of interest, and GAPDH (mouse gapdh primers) as a housekeeping gene (Life Technologies). The delta Ct was calculated and difference in mRNA expression was expressed as a fold-change to vehicle condition.

M1 macrophages = test: Macrophage polarization to pro-inflammatory M1 phenotype, markers by flow cytometry; format: cell-based, human; conditions: M-CSF polarized macrophages activated by IFN-γ or LPS for 24 h
Protocol: M1 macrophages were induced by stimulation with M-CSF (50 ng/mL) for 6 days, then activated by IFN-7 or LPS for 24 h, fixed, stained for M1 polarization markers CD38, CD64, CD86 and CD80 and acquired by flowcytometry.

human CD34+ cells [6] = test: Fetal hemoglobin (HbF) induction in mobilized CD34+ HSPC from healthy individuals during erythroid differentiation, F-cells by flow cytometry; format: cell-based; conditions: healthy donors; for fetal hemoglobin induction, F-cell (HbF+) frequency in enucleated GlyA+ cells: vs DMSO or single agents; for frequency of F-cells (HbF+): compared to vehicle (DMSO)
Protocol: Mobilized CD34+ Human Stem/Progenitor Cells (HSPC) from healthy individuals were cultured for 3 days in a maintenance media consisting of X-VIVO 10 (VWR), 100 U/mL penicillin-streptomycin (ThermoFisher), 2 mM L-glutamine (Fisher Scientific), 100 ng/mL Recombinant Human Stem Cell Factor (SCF), 100 ng/mL Recombinant Human Thrombopoietin (TPO) and 100 ng/mL Recombinant Human Flt-3 Ligand (Flt-3L) (all three from ThermoFisher). Cells were differentiated into erythroid cells using a three-step differentiation protocol developed by the Luc Douay group (Giarratana et al. 2005). […] On day 7, cells were transferred to step 2 media, a step 1 media without hydrocortisone and IL-3, and cultured for 3-4 days. Then cells were cultured for 8-9 days in step 3 media, a step 2 media without SCF. […] To determine the percentage of HbF-positive cells (F-cells), differentiate cells were fixed and permeabilized using a fixation kit (ThermoFisher). Cells were stained with PE-Cy7-conjugated anti-CD235 or PE-conjugated anti-CD71 antibodies. HbF levels were detected using Allophycocyanin (APC)-conjugated anti-HbF antibody (ThermoFisher). The acquisition of stained cells was performed on BD FACSCanto™ and the analysis was run using FlowJo™ Software.
Human CD34+ cells were exposed to β1-selective AMPK activators and pan-AMPK activators during the 21-day differentiation process. To assess fetal hemoglobin expression level, cells were fixed and stained with CD235a, CD71 and fetal hemoglobin antibodies for flowcytometry analysis.
After 14 days of differentiation, cells were fixed and stained with CD235a, CD71 and fetal hemoglobin antibodies for flowcytometry analysis.

[7] = 7-day toxicological study in rats, hematological erythroid parameters; format: in vivo, Crl:CD (Sprague Dawley) rats; conditions: rats, 100, 300 and 1000 mg/kg/day PO QD 7 days, blood on day 8
Protocol: On day 8, blood samples were drawn and complete blood counts (CBC) were tested on a hematology analyzer to determine red blood cell counts (10^6 RBC/μL), hemoglobin (Hb, g/dL) and hematocrit (HCT, %).

AMPK [8] = test: AMPK target engagement: Thr172 phosphorylation of alpha-AMPK (Alpha SureFire Ultra Multiplex) in undifferentiated HUDEP-2 cells; format: cell-based, human
Protocol: Phosphorylation of AMPK at threonine 172 (Thr172) on the α-subunit of AMPK was assessed by […] using the Alpha SureFire Ultra Multiplex p-AMPKα1/2 (Thr172)+Total AMPKα1/2 Assay Kit from Perkin Elmer as a target engagement assay. The assay kit contains antibodies, coupled with fluorophore Europium, which recognize the phospho-Thr172 epitope and a distal epitope on α-AMPK of human or mouse AMPK. The kit also contains antibodies coupled with the fluorophore Terbium to measure the total levels of AMPK. […] As to the human HUDEP-2 cells line, cells were undifferentiated during exposure to AMPK activators. According to the time course, cells were collected and lysed using RIPA buffer mixed with a phosphatase and protease inhibitors cocktail (Thermofisher). Phospho-AMPK signal was divided by total AMPK signal and the ratio was normalized to the total protein concentration. Samples protein concentrations were measured with the Pierce BSA Protein Assay (ThermoFisher).

AMPK [9] = target: T1, AMPK (Homo sapiens, UniProt Q13131+Q9Y478); test: AMPK target engagement: Thr172 phosphorylation of alpha-AMPK (Alpha SureFire Ultra Multiplex) in CD34+ cells at day 11 of differentiation; format: cell-based; conditions: differentiated CD34+ cells
T1 construct: endogenous in cells; host or cells: mobilized human CD34+ HSPC from a healthy donor, day 11 of erythroid differentiation
T1 sequence (Q13131 whole entry): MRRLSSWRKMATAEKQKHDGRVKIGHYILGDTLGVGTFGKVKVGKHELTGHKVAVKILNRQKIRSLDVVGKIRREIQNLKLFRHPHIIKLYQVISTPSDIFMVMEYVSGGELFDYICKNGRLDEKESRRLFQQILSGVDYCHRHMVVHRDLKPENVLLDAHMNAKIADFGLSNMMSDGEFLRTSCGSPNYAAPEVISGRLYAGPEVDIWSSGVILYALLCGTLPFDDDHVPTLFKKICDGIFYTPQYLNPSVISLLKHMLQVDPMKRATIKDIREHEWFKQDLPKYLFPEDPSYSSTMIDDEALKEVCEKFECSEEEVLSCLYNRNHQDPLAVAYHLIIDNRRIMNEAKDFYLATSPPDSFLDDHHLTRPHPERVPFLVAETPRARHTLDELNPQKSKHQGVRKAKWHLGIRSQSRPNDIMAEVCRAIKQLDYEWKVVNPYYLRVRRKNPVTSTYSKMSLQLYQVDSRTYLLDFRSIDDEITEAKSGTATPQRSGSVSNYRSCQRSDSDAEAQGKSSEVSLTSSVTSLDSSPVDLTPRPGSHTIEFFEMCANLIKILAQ
T1 sequence (Q9Y478 2-270): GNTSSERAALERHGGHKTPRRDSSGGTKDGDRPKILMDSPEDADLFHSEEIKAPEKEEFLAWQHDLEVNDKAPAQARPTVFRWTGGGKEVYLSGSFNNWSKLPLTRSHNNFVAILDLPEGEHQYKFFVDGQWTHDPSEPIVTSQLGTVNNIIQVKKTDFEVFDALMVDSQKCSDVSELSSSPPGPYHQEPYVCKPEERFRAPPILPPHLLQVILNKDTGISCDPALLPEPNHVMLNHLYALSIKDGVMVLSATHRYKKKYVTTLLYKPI
T1 sequence (P54619 whole entry partner): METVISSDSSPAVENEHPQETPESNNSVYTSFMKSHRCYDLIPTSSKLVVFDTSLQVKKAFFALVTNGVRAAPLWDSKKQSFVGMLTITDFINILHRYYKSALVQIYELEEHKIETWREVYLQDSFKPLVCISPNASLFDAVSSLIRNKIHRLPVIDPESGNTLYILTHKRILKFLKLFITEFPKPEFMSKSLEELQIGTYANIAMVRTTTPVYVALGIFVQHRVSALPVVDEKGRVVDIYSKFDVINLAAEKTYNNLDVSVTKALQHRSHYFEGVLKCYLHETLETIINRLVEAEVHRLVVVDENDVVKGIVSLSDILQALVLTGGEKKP

SMILES: O=C(O)c1c[nH]c2cc(Cl)c(-c3ccc(C4(O)CCC4)cc3)cc12 [Compound 1]
expression of differentiation markers CD71 and CD235a (human CD34+ cells [1]; after 14 days of differentiation): unchanged | enucleation of CD34+ cells (human CD34+ cells [1]; after 21 days of differentiation): no effect | F-cell (HbF+) frequency in enucleated GlyA+ cells [2]: increase | fetal hemoglobin protein expression in bone marrow (fetal hemoglobin protein): increase | Nrf2-antioxidant response element signaling pathway (IPA of proteomics data) [3]: activated | HO-1 (HMOX1) protein regulation ([3]; vs DMSO): upregulated | SQSTM1 protein regulation ([3]; vs DMSO): upregulated | ROS in bone marrow [4]: decrease | mRNA for human HbF (human γ-globin, HBG) increase [5]: not | expression of proinflammatory M1 marker CD38 (M1 macrophages): decreased | expression of proinflammatory M1 marker CD64 (M1 macrophages): decreased | expression of proinflammatory M1 marker CD80 (M1 macrophages): decreased | expression of proinflammatory M1 marker CD86 (M1 macrophages): decreased | fetal hemoglobin induction, F-cell (HbF+) frequency in enucleated GlyA+ cells (human CD34+ cells [6]; 14 days of differentiation): increases | increase of HbF+ cells compared to DMSO (human CD34+ cells [6]; 21 days of differentiation): about 2 fold | frequency of F-cells (HbF+) (human CD34+ cells [6]; 21 days of differentiation): increase | hematocrit [7]: does not reduce | hemoglobin [7]: does not reduce | red blood cell counts (RBC) [7]: does not reduce

SMILES: N#Cc1c(O)c2c(-c3ccc(-c4ccccc4O)cc3)csc2[nH]c1=O [Compound 2]
time of peak AMPK phosphorylation (Thr172, pAMPK/total AMPK) (AMPK [8]): around 1 hours | frequency of F-cells (HbF+) (human CD34+ cells [6]; 21 days of differentiation): increase

time of peak AMPK phosphorylation (Thr172, pAMPK/total AMPK) (AMPK [9]): around 3 hour
SMILES: OCCOc1cc(F)c(COc2nc3nc(O[C@@H]4CO[C@H]5[C@@H]4OC[C@H]5O)[nH]c3cc2Cl)c(F)c1 [Compound 3]
time of peak AMPK phosphorylation (Thr172, pAMPK/total AMPK) (AMPK [8]): around 1 hours | frequency of F-cells (HbF+) (human CD34+ cells [6]; 21 days of differentiation): increase

time of peak AMPK phosphorylation (Thr172, pAMPK/total AMPK) (AMPK [9]): around 3 hour
SMILES: COc1cccc(-n2c(=O)[nH]c3cc(Cl)n(-c4ccc(-c5cccc(OC)c5O)cc4)c3c2=O)c1 [Compound 4]
time of peak AMPK phosphorylation (Thr172, pAMPK/total AMPK) (AMPK [8]): around 1 hours | frequency of F-cells (HbF+) (human CD34+ cells [6]; 21 days of differentiation): increase

SMILES: NC(=O)NO [Hydroxyurea, hydroxyurea]
F-cell (HbF+) frequency in enucleated GlyA+ cells [2]: increase | fetal hemoglobin induction, F-cell (HbF+) frequency in enucleated GlyA+ cells (human CD34+ cells [6]; 14 days of differentiation): increases | fold change in fetal hemoglobin expression compared to control (human CD34+ cells [6]; 14 days of differentiation, vs Vehicle (DMSO)): 1,5 fold
